In patent US20210251267A1, “LIGUSTROSIDIC ACID AND DERIVATIVES THEREOF FOR SWEETNESS ENHANCEMENT” (International Flavors & Fragrances Inc., priority 2018, published 2021):

Experiments:
Design in all cases: species or system human
[1] = Taste and smell of the compounds alone
Method: (§1) A sucrose solution (4%) was prepared in water. Each of ligustrosidic acid and 2′-hydroxy ligustrosidic acid solutions of different concentrations was prepared in ethanol solution in water (50%). Ligustrosidic acid and 2′-hydroxy ligustrosidic acid were evaluated at 1 and 200 ppm, respectively.

[2] = Enhancement of sucrose sweetness (flavor profile of sucrose solution with added substance); details: sucrose solution (4%), all levels tested
Text: (§2) The term “sweetness” or “sweetness intensity” is understood to mean the relative strength of sweet sensation as observed or experienced by an individual, e.g., a human, or a degree or amount of sweetness detected by a taster, for example on the scale from 0 (none) to 8 (very strong) used in sensory evaluations according to the procedure described in American Society for Testing Materials, Special Technical Publication-434: “Manual on Sensory Testing Methods,” ASTM International, West Conshohocken, Pa. (1996).
as §1
The flavor profile of the sucrose solution with added ligustrosidic acid and 2′-hydroxy ligustrosidic acid is reported in the following:
(§3) Solutions of sucrose (4%) and Luo Han Guo (120 ppm) were prepared as above (EXAMPLE II and III). In addition, solutions of fructose (3.4%), Reb A (GLG Life Tech Corporation, Canada) (90 ppm) and GSG (Glucosyl Steviol Glucosides, GLG Life Tech Corporation, Canada) (200 ppm) were also prepared in water.
The sucrose solution (4%) with the addition of various amount of Carica papaya leave extract was evaluated.

[3] = Enhancement of Luo Han Guo sweetness (flavor profile); details: Luo Han Guo solution (120 ppm), all levels tested
Text: as §2
A Luo Han Guo (Biovittoria Ltd., New Zealand) solution was prepared in water (120 ppm). Ligustrosidic acid and 2′-hydroxy ligustrosidic acid solutions were prepared as above (EXAMPLE II). The flavor profile of the Luo Han Guo solution with added ligustrosidic acid and 2′-hydroxy ligustrosidic acid is reported in the following:
as §3
The Luo Han Guo solution (120 ppm) with the addition of various amount of Carica papaya leave extract was evaluated.

Row | SMILES | Taste and smell of the compound alone ([1]; evaluated at 1 ppm) | Overall effect on sucrose sweetness (summary in words) ([2]; listed as Ligustrosidic acid) | Overall effect on sucrose sweetness (summary in words) ([2]; listed as ligustrosidic acid) | Overall effect on Luo Han Guo sweetness (summary in words) ([3]; listed as Ligustrosidic acid) | Overall effect on Luo Han Guo sweetness (summary in words) ([3]; listed as ligustrosidic acid) | Taste and smell of the compound alone ([1]; evaluated at 200 ppm) | Overall effect on sucrose sweetness (summary in words) [2] | Overall effect on Luo Han Guo sweetness (summary in words) [3]
1 | COC(=O)C1=COC(OC2OC(CO)C(O)C(O)C2O)C(=CC(=O)O)C1CC(=O)OCCc1ccc(O)cc1 (stereo in doubt) [Ligustrosidic Acid, [3-(carboxymethylene)-2-(β-D-glucopyranosyloxy)-3,4-dihydro-5-(methoxycarbonyl)]-2H-pyran-4-acetic acid-α-[2-(4-hydroxyphenyl)ethyl]ester] | devoid of taste and smell | particularly strong effect | enhanced overall sweetness, body and mouthfeel | particularly strong effect | enhanced overall sweetness, body and mouthfeel | – | – | –
2 | COC(=O)C1=COC(OC2OC(CO)C(O)C(O)C2O)/C(=C\C(=O)O)C1CC(=O)OCCc1ccc(O)c(O)c1 (centres unmarked) [2′-Hydroxy Ligustrosidic Acid, 2′-hydroxy ligustrosidic acid] | – | – | – | – | – | devoid of taste and smell | strong effect in sweetness enhancement | strong effect in sweetness enhancement
